Experimental data from PMC10101232, “Population pharmacokinetics of vancomycin in very low birth weight neonates” (Frontiers in Pediatrics, 2023).
Read-outs that look alike come from different tables or passages of the source.

Columns and labels:
[1] = model from 10 VLBW neonates, 10 mg/kg every 8 h, ref Kato et al. [16]; cited from earlier work
Text: The most commonly used tertiary dosing references present vancomycin dosing recommendations for neonates considering only one or two of these variables. For example, Micromedex NeoFax recommends dosing based on a combination of PMA and PNA, pediatric and neonatal Lexicomp recommends two different dosing strategies, one based on a combination of PMA and PNA and the other based on a combination of GA and Scr (Table 1). As a result, the daily doses can differ widely by up to 50% between these studies. Studies have reported that the probability of achieving vancomycin therapeutic targets in neonat ... || To date, only two studies with very small sample size have evaluated the optimal vancomycin dosing in VLBW neonates ([16], [17]). Kato et al. ([16]) recommended a vancomycin dose of 10 mg/kg every 8 h as the initial dosage regimen for vancomycin in VLBW neonates. This model predicted vancomycin therapeutic target achievement in 86.7% of neonates. However, they developed their model based on data from only 10 VLBW neonates, and the simulations were not divided into categories according to Scr and PMA. The major difference between our findings and the Kato et al. model is that for most groups, e ...

[2] = Vancomycin population pharmacokinetic model (one-compartment, Monolix) from serum concentrations in VLBW neonates
Procedure: Data were retrieved for VLBW neonates (0–30 days old) who were admitted to the NICU and received vancomycin for proven or suspected MRSA or MRCONS infections. Patients were included if they received vancomycin for more than 48 h and had at least one vancomycin serum trough concentration measurement in a steady state. The collected data included PNA, PMA, weight, Scr, vancomycin dose, frequency and concentrations. […] Subsequent dose adjustments were guided by the vancomycin trough concentrations. In King Saud University Medical City, both vancomycin peak and trough concentrations were obtained for therapeutic drug monitoring. In all other hospitals, the practice was to collect trough concentrations only. Peak samples were collected 1 h after the end of infusions, and trough concentrations were collected 30 min before the next dose in a steady state. Exclusion criteria were: renal failure, receiving hemodialysis, missing dosing information and those sampled before the steady state were excluded.
One hospital used a chemiluminescent microparticle immunoassay with an Architect i4000SR immunoassay analyzer (Abbott), two hospitals used the kinetic interaction of microparticles in solution (KIMS) with a Cobas c system (Roche/Hitachi), and three hospitals used the homogeneous particle-enhanced turbidimetric inhibition immunoassay (PETINIA) with an Alinity c analyzer (Abbott). The assay range for the Architect immunoassay is from 0.5 to 83 µg/ml, the range for the KIMS assay is 4–80 µg/ml, and the range for the PETINIA is 1.4–100 µg/ml. For the Scr assays, four centers used the Jaffe method, and two centers used the enzymatic method.
We split the data randomly into the training (70%) and validation (30%) data sets. […] Pharmacokinetic modeling was performed using the Monolix software (2020R1) with the stochastic approximation expectation maximization algorithm.
First, we developed a structural model for vancomycin. This included testing one- and two-compartment models with linear and nonlinear elimination. For the between-subject variability in pharmacokinetic parameters, we used the following lognormal distribution: pi=p.exp⁡(ηi), where pi is the individual pharmacokinetic estimate for the i^th individual, p is the median value of the pharmacokinetic parameter, and ηi is the standard deviation for the i^th individual with a mean of 0 and variance ω^2. For residual unexplained variability, we tested different statistical models, including the constant, proportional, and combined error models. As different assays were used for vancomycin, we tested having different residual variability models accordingly.
After we developed the base model, we evaluated the effect of covariates on pharmacokinetic parameters. […]

[3] = cited from earlier work; for risk of nephrotoxicity: adults, ref [30]

SMILES: CN[C@H](CC(C)C)C(=O)N[C@H]1C(=O)N[C@@H](CC(N)=O)C(=O)N[C@H]2C(=O)N[C@H]3C(=O)N[C@H](C(=O)N[C@H](C(=O)O)c4cc(O)cc(O)c4-c4cc3ccc4O)[C@H](O)c3ccc(c(Cl)c3)Oc3cc2cc(c3O[C@@H]2O[C@H](CO)[C@@H](O)[C@H](O)[C@H]2O[C@H]2C[C@](C)(N)[C@H](O)[C@H](C)O2)Oc2ccc(cc2Cl)[C@H]1O [vancomycin]
- predicted vancomycin therapeutic target achievement [1]: 86.7%
- typical Cl value ([2]; VLBW neonate weighing 0.93 kg, PMA 26 weeks, Scr 0.6 mg/dl): 0.09 L/h
- TMA50 (PMA at which CL is 50% of the mature value) ([2]; final model): 26.3 weeks
- Cl (total body clearance), estimate ([2]; final population PK model, VLBW neonates, training data set N = 162): 0.09 L/h
- V (volume of distribution), estimate ([2]; final population PK model, VLBW neonates, training data set N = 162, typical value at 0.93 kg): 0.81 L
- probable vancomycin-related nephrotoxicity, neonates affected ([3]; VLBW neonates, ref Madigan et al. [41]): two out of 57
- risk of nephrotoxicity ([3]; troughs >20 µg/ml): approximately 30%
- risk of nephrotoxicity ([3]; troughs between 15 and 20 µg/ml): approximately 15%
- nephrotoxicity, patients ([3]; infants, ref Viel-Thériault et al. [42]): 6%
- subjects who developed nephrotoxicity ([3]; neonatal intensive care unit, ref Bhargava et al. [39]): three out of 110
- AUC0−24 cutoff as a predictor of nephrotoxicity ([3]; neonates, ref Tang et al. [43]): > 485 µg·h/mL
- neonates who developed nephrotoxicity ([3]; neonates, ref Tang et al. [43]): seven out of 182
